# Results as given in ChEMBL document CHEMBL3044635, “Effect of propiconazole and difenoconazole on the control of anthracnose of chilli fruits caused by Colletotrichum capsici” (Crop Prot, 2006).
# Key:
# Colletotrichum truncatum [1] = assay: Fungicidal activity against Colletotrichum capsici assessed as inhibition of mycelial growth; type: functional
# Colletotrichum truncatum [2] = assay: Fungicidal activity against Colletotrichum capsici assessed as sporulation at 5 ug/ml incubated 16 hr photoperiod for 20 days by haemocytometer (reference value: 0.081 x 10^6 ml'-1); type: functional
# Colletotrichum truncatum [3] = assay: Fungicidal activity against Colletotrichum capsici assessed as mycelial biomass at 0.5 ug/ml incubated 16 hr photoperiod for 20 days (reference value: 675 mg); type: functional
# Colletotrichum truncatum [4] = assay: Fungicidal activity against Colletotrichum capsici infected chilli plant assessed as percent disease index at 0.1% applied as spray on day 10 post inoculation and twice every 20 days measured on day 155 post sowing in green house conditions (reference value: 62.5 to 68.6%); type: functional
# Colletotrichum truncatum [5] = assay: Fungicidal activity against Colletotrichum capsici infected chilli plant assessed as fruit length measured per plot at 0.1% applied as spray on day 10 post inoculation and twice every 20 days measured on day 155 post sowing in field conditions (reference value: 8 to 8.7 cm); type: functional
# Colletotrichum truncatum [6] = assay: Fungicidal activity against Colletotrichum capsici assessed as mycelial biomass at 25 ug/ml incubated 16 hr photoperiod for 20 days (reference value: 675 mg); type: functional
# Colletotrichum truncatum [7] = assay: Fungicidal activity against Colletotrichum capsici assessed as linear growth at 1 ug/ml incubated 16 hr photoperiod for 20 days (reference value: 90 mm); type: functional
# Colletotrichum truncatum [8] = assay: Fungicidal activity against Colletotrichum capsici assessed as reduction of pectin trans-eliminase production at 1 ug/ml incubated for 10 days measured up to 120 min by Ostwald-Fenske viscometric analysis (reference value: 38.5%); type: functional; design: scale not given: the % may be the effect or the level left
# Colletotrichum truncatum [9] = assay: Fungicidal activity against Colletotrichum capsici assessed as sporulation at 10 ug/ml incubated 16 hr photoperiod for 20 days by haemocytometer (reference value: 0.081 x 10^6 ml'-1); type: functional
# Colletotrichum truncatum [10] = assay: Fungicidal activity against Colletotrichum capsici assessed as linear growth at 5 ug/ml incubated 16 hr photoperiod for 20 days (reference value: 90 mm); type: functional
# Colletotrichum truncatum [11] = assay: Fungicidal activity against Colletotrichum capsici assessed as sporulation at 0.5 ug/ml incubated 16 hr photoperiod for 20 days by haemocytometer (reference value: 0.081 x 10^6 ml'-1); type: functional
# Colletotrichum truncatum [12] = assay: Fungicidal activity against Colletotrichum capsici assessed as mycelial biomass at 0.1 ug/ml incubated 16 hr photoperiod for 20 days (reference value: 675 mg); type: functional
# Colletotrichum truncatum [13] = assay: Fungicidal activity against Colletotrichum capsici assessed as spore germination at 1 ug/ml after 48 to 96 hr (reference value: 70.2 CFU); type: functional
# Colletotrichum truncatum [14] = assay: Fungicidal activity against Colletotrichum capsici assessed as spore germination at 5 ug/ml after 48 to 96 hr (reference value: 70.2 CFU); type: functional
# Colletotrichum truncatum [15] = assay: Fungicidal activity against Colletotrichum capsici assessed as reduction of polygalacturonase trans-eliminase production at 1 ug/ml incubated for 10 days measured up to 120 min by Ostwald-Fenske viscometric analysis (reference value: 40.8%); type: functional; design: scale not given: the % may be the effect or the level left
# Colletotrichum truncatum [16] = assay: Fungicidal activity against Colletotrichum capsici infected chilli plant assessed as percent disease index at 0.1% applied as spray on day 10 post inoculation and twice every 20 days measured on day 155 post sowing in field conditions (reference value: 51 to 56.5%); type: functional
# Colletotrichum truncatum [17] = assay: Fungicidal activity against Colletotrichum capsici assessed as spore germination at 0.5 ug/ml after 48 to 96 hr (reference value: 70.2 CFU); type: functional
# Colletotrichum truncatum [18] = assay: Fungicidal activity against Colletotrichum capsici assessed as sporulation at 25 ug/ml incubated 16 hr photoperiod for 20 days by haemocytometer (reference value: 0.081 x 10^6 ml'-1); type: functional
# Colletotrichum truncatum [19] = assay: Fungicidal activity against Colletotrichum capsici assessed as spore germination at 10 ug/ml after 48 to 96 hr (reference value: 70.2 CFU); type: functional
# Colletotrichum truncatum [20] = assay: Fungicidal activity against Colletotrichum capsici infected chilli plant assessed as fruit yield measured per plot at 0.1% applied as spray on day 10 post inoculation and twice every 20 days measured on day 155 post sowing in field conditions (reference value: 8.25 to 9.3 kg); type: functional
# Capsicum annuum = assay: Phytotoxicity in Capsicum annuum (pepper) at 0.1% applied as spray; type: organism-based; settings: in vivo, other
# Colletotrichum truncatum [21] = assay: Fungicidal activity against Colletotrichum capsici assessed as inhibition of spore germination at 0.1 ug/ml after 48 to 96 hr relative to control; type: functional
# Colletotrichum truncatum [22] = assay: Fungicidal activity against Colletotrichum capsici assessed as reduction of polygalacturonase production at 1 ug/ml incubated for 10 days measured up to 120 min by Ostwald-Fenske viscometric analysis (reference value: 45.3%); type: functional; design: scale not given: the % may be the effect or the level left
# Colletotrichum truncatum [23] = assay: Fungicidal activity against Colletotrichum capsici assessed as mycelial biomass at 5 ug/ml incubated 16 hr photoperiod for 20 days (reference value: 675 mg); type: functional
# Colletotrichum truncatum [24] = assay: Fungicidal activity against Colletotrichum capsici infected chilli plant assessed as fruit mass measured per pot at 0.1% applied as spray on day 10 post inoculation and twice every 20 days measured on day 155 post sowing in green house conditions (reference value: 85.3 to 94.5 g); type: functional
# Colletotrichum truncatum [25] = assay: Fungicidal activity against Colletotrichum capsici assessed as linear growth at 10 ug/ml incubated 16 hr photoperiod for 20 days (reference value: 90 mm); type: functional
# Colletotrichum truncatum [26] = assay: Fungicidal activity against Colletotrichum capsici assessed as spore germination at 25 ug/ml after 48 to 96 hr (reference value: 70.2 CFU); type: functional
# Colletotrichum truncatum [27] = assay: Fungicidal activity against Colletotrichum capsici assessed as mycelial biomass at 50 ug/ml incubated 16 hr photoperiod for 20 days (reference value: 675 mg); type: functional
# Colletotrichum truncatum [28] = assay: Fungicidal activity against Colletotrichum capsici assessed as mycelial biomass at 1 ug/ml incubated 16 hr photoperiod for 20 days (reference value: 675 mg); type: functional
# Colletotrichum truncatum [29] = assay: Fungicidal activity against Colletotrichum capsici assessed as spore germination at 50 ug/ml after 48 to 96 hr (reference value: 70.2 CFU); type: functional
# Colletotrichum truncatum [30] = assay: Fungicidal activity against Colletotrichum capsici infected chilli plant assessed as fruit length at 0.1% applied as spray on day 10 post inoculation and twice every 20 days measured on day 155 post sowing in green house conditions (reference value: 6.8 to 7 cm); type: functional
# Colletotrichum truncatum [31] = assay: Fungicidal activity against Colletotrichum capsici assessed as sporulation at 0.1 ug/ml incubated 16 hr photoperiod for 20 days by haemocytometer (reference value: 0.081 x 10^6 ml'-1); type: functional
# Colletotrichum truncatum [32] = assay: Fungicidal activity against Colletotrichum capsici assessed as sporulation at 1 ug/ml incubated 16 hr photoperiod for 20 days by haemocytometer (reference value: 0.081 x 10^6 ml'-1); type: functional
# Colletotrichum truncatum [33] = assay: Fungicidal activity against Colletotrichum capsici assessed as mycelial biomass at 10 ug/ml incubated 16 hr photoperiod for 20 days (reference value: 675 mg); type: functional
# Colletotrichum truncatum [34] = assay: Fungicidal activity against Colletotrichum capsici assessed as linear growth at 0.5 ug/ml incubated 16 hr photoperiod for 20 days (reference value: 90 mm); type: functional
# Colletotrichum truncatum [35] = assay: Fungicidal activity against Colletotrichum capsici assessed as linear growth at 25 ug/ml incubated 16 hr photoperiod for 20 days (reference value: 90 mm); type: functional
# Colletotrichum truncatum [36] = assay: Fungicidal activity against Colletotrichum capsici assessed as sporulation at 50 ug/ml incubated 16 hr photoperiod for 20 days by haemocytometer (reference value: 0.081 x 10^6 ml'-1); type: functional
# Colletotrichum truncatum [37] = assay: Fungicidal activity against Colletotrichum capsici assessed as linear growth at 0.1 ug/ml incubated 16 hr photoperiod for 20 days (reference value: 90 mm); type: functional
# Colletotrichum truncatum [38] = assay: Fungicidal activity against Colletotrichum capsici assessed as linear growth at 50 ug/ml incubated 16 hr photoperiod for 20 days (reference value: 90 mm); type: functional
compound,measurement,setting,value
C=CCOC(Cn1ccnc1)c1ccc(Cl)cc1Cl (configuration not stated) [ENILCONAZOLE],ED50,Colletotrichum truncatum [1],<5 ugAi/ml
CCCCC(O)(Cn1cncn1)c1ccc(Cl)cc1Cl (configuration not stated) [HEXACONAZOLE],ED50,Colletotrichum truncatum [1],<5 ugAi/ml
CC(C)(C)C(O)C(Oc1ccc(-c2ccccc2)cc1)n1cncn1 (configuration not stated) [BITERTANOL],ED50,Colletotrichum truncatum [1],<5 ugAi/ml
c1ccc2[nH]c(-c3cscn3)nc2c1 [THIABENDAZOLE],ED50,Colletotrichum truncatum [1],<5 ugAi/ml
COC(=O)Nc1nc2ccccc2[nH]1 [CARBENDAZIM],Activity,Colletotrichum truncatum [2],1.03 ×10⁶ /ml
same,Activity,Colletotrichum truncatum [3],405 mg
same,PDI,Colletotrichum truncatum [4],27.7%
same,Activity,Colletotrichum truncatum [5],8.5 cm
same,Activity,Colletotrichum truncatum [6],46 mg
same,Activity,Colletotrichum truncatum [7],45.8 mm
same,Activity,Colletotrichum truncatum [8],18%
same,Activity,Colletotrichum truncatum [9],0 ×10⁶ /ml
same,Activity,Colletotrichum truncatum [10],39.5 mm
same,Activity,Colletotrichum truncatum [11],2.42 ×10⁶ /ml
same,Activity,Colletotrichum truncatum [12],570 mg
same,CFU,Colletotrichum truncatum [13],10.3
same,CFU,Colletotrichum truncatum [14],3.2
same,Activity,Colletotrichum truncatum [15],19%
same,PDI,Colletotrichum truncatum [16],27.5%
same,CFU,Colletotrichum truncatum [17],32.2
same,Activity,Colletotrichum truncatum [18],0 ×10⁶ /ml
same,CFU,Colletotrichum truncatum [19],0
same,Crop_yield,Colletotrichum truncatum [20],11.25 kg
same,Activity,Capsicum annuum,Non-toxic
same,inhibition at 0.1 µg/mL,Colletotrichum truncatum [21],35%
same,Activity,Colletotrichum truncatum [22],13.5%
same,Activity,Colletotrichum truncatum [23],186 mg
same,Crop_yield,Colletotrichum truncatum [24],120.8 g
same,Activity,Colletotrichum truncatum [25],21.3 mm
same,CFU,Colletotrichum truncatum [26],0
same,Activity,Colletotrichum truncatum [27],0 mg
same,Activity,Colletotrichum truncatum [28],304 mg
same,CFU,Colletotrichum truncatum [29],0
same,Activity,Colletotrichum truncatum [30],7.3 cm
same,Activity,Colletotrichum truncatum [31],3.53 ×10⁶ /ml
same,Activity,Colletotrichum truncatum [32],1.49 ×10⁶ /ml
same,Activity,Colletotrichum truncatum [33],82 mg
same,Activity,Colletotrichum truncatum [34],66.3 mm
same,Activity,Colletotrichum truncatum [35],9 mm
same,Activity,Colletotrichum truncatum [36],0 ×10⁶ /ml
same,Activity,Colletotrichum truncatum [37],85.5 mm
same,Activity,Colletotrichum truncatum [38],9 mm
